Read-outs that look alike come from different tables or passages of the source.
Target: T1, Olfr73 (Mus musculus, UniProt Q920P2)
T1 construct: expressed in transfected cells; host or cells: Hana3A cells (HEK293T-derived), co-transfected with pRTP1S and pCRE-SEAP
T1 sequence (Q920P2 1-313): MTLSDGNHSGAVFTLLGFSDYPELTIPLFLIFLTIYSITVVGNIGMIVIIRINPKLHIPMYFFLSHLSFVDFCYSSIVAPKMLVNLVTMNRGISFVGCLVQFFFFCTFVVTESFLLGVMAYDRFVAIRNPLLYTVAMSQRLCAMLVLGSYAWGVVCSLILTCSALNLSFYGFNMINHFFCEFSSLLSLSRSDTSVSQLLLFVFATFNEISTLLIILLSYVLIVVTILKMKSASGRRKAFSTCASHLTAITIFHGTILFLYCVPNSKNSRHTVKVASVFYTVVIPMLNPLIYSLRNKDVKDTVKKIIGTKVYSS
Assay: SEAP reporter assay (cAMP signalling) of Olfr73 activation in Hana3A cells
Format: cell-based
Method: As described in detail elsewhere[16],[45],[47] HEK293T-derived Hana3A cells (provided by Prof. Matsunami, Duke University, USA) were grown in DMEM/F12 medium (Invitrogen, Netherlands) supplemented with 10% fetal calf serum (FCS) (Invitrogen, Netherlands), maintained under selective conditions with 1 μg/ml of puromycin (Sigma, Switzerland) and kept in the incubator at 37 °C and 5% CO2. Cells were transfected with plasmid DNA using Lipofectamine 2000 (Invitrogen, Netherlands).
The assays were performed as described in detail elsewhere[16],[45],[47] twenty hours before transfection Hana3A cells were seeded into 96 wells (Greiner, Germany) at a concentration of 3.5 × 10^6 cells per ml of medium. 75 ng of pRTP1S, 150 ng of the cAMP response element fused to the secreted alkaline phosphatase (pCRE-SEAP)[89] and either 75 ng of pOlfr73[47] or 75 ng of calf thymus DNA, used as a control, were co-transfected. Compounds to be tested (Sigma, Switzerland) were diluted in DMEM/F12 without FCS and added to the cells 7 h after transfection. Cells were incubated for 16 h at 37 °C in the incubator. For the SEAP reporter assay, the culture medium was mixed with an equal volume of 1 M diethanolamine-bicarbonate, pH 9.8, containing 20 mM para-nitrophenyl-phosphate (pNPP) (Sigma, Switzerland) and 1 mM MgCl2 (Sigma, Switzerland). Absorbance was measured at 410 nm using a multiwell absorbance plate reader (Molecular Devices, USA) at 1- to 4-min intervals for a period of 5 min to determine SEAP expression dependent pNPP hydrolysis rates (A410 /min). EC50 values were determined from dose-response curves fitting experimental data with the Hill equation using IGOR Pro software (WaveMetrics):
fx=f(max)/1+EC50/x^n f(x) is the background-corrected response signal at concentration x of the investigated ligand, f(max) the maximal, background-corrected amplitude of the response signal, EC50 the half maximal effective ligand concentration, and n the Hill coefficient. Experiments were performed in triplicate.

[1] = Supplementary Table 2, cellular assays, triplicate, n.a. = no active response, read-out: EC50
[2] = EC50 (μM), Supplementary Table 2, cellular assays, triplicate, n.a. = no active response
[3] = Fig. 4, newly found agonists A1-A17, read-out: EC50 (in brackets, Fig. 4)
[4] = EC50 (in brackets, Fig. 4), Fig. 4, newly found agonists A1-A17

Row | SMILES | EC50 [1] | EC50 [2] | other results
1 | CCCc1ccc(O)c(OC)c1 [A5, dihydroeugenol] | – | 61 ± 6.9 µM | –
2 | CC(C)=C[C@H]1C[C@H](C)CCO1 [A17, (2R,4R)-4-methyl-2-(2-methylprop-1-en-1-yl)-tetrahydro-2H-pyran] | 627 ± 62 µM | – | –
3 | C=CCc1cc(C(C)=O)ccc1O [A9, 1-(3-allyl-4-hydroxyphenyl)-ethanone] | – | 96.9 ± 1.7 µM | EC50 [4]: 97 µM
4 | CC/C=C/c1ccc(OC)c(OC)c1 [A8, (E)-4-(but-1-en-1-yl)-1,2-dimethoxybenzene] | – | 92.5 ± 0.9 µM | EC50 [4]: 93 µM
5 | CCOC(=O)c1ccc(O)c(OC)c1 [A16, ethylvanillate] | – | 505 ± 109 µM | –
6 | CCC(=O)c1ccc(O)cc1 [A15, 4-hydroxypropiophenone] | 502 ± 315 µM | – | –
7 | Oc1ccc(C2CCCCC2)cc1 [A3, 4-cydohexyl-phenol] | – | 50.8 ± 0.5 µM | EC50 [4]: 51 µM
8 | CCCCCC1CCC(=O)CC1 [A6, 4-pentylcyclohexanone] | 63.1 ± 1.5 µM | – | EC50 [3]: 63 µM
9 | CC(=O)c1cc(C)c(O)c(C)c1 [A13, 4-hydroxy-3,5-dimethylacetophenone] | 250 ± 3 µM | – | –

Continued, in another order:

Row | EC50 [1] | SMILES | EC50 [2] | other results
10 | 193 ± 3 µM | C/C=C/c1ccc(OCC)c(OC)c1 [A11, isoeugenylethylether] | – | –
11 | 12.9 ± 0.9 µM | CC(C)Cc1ccc(O)cc1 [A1, p-isobutylphenol] | – | EC50 [3]: 13 µM; agonist activity at Olfr73 (SEAP signal) (Hana3A cells, compounds predicted from virtual screening): most potent ligand
12 | 88.4 ± 1.3 µM | COc1cc2c(cc1OC)CCCC2 [A7, 6,7-dimethoxy-1,2,3,4-tetrahydronaphthalene] | – | EC50 [3]: 88 µM
13 | 120 ± 1 µM | COc1cc2ccccc2cc1OC [A10, 2,3-dimethoxynaphthalene] | – | –
14 | 55.6 ± 0.7 µM | COc1cc(C(C)(C)C)ccc1O [A4, 4-tert-butyl-2-methoxyphenol] | – | EC50 [3]: 56 µM
15 | 16 ± 1.5 µM | CC(=O)c1cc(C)c(O)cc1C [A2, 2’,5’-dimethyl -4’hydroxyacetophenone] | – | –
